{"source": "patent US7179943B2", "about": "“Bicyclic derivatives that modulate voltage-gated potassium channels and methods of use thereof” (Wyeth, priority 2004, dated 2007)", "key": {"[1]": {"tested_on": "mouse Elevated Zero Maze", "assay": "Anxiolytic activity: mouse Elevated Zero Maze model", "format": "in vivo", "details": "30 min prior to testing, mice; for % Total Distance Traveled (Relative to Control): 3 mg/kg ip.", "procedure": "Anxiolytic activity of the compounds of formula I was determined using the mouse Elevated Zero Maze model, originally described by Shepherd, et al. (Psychopharmocol. (1994) 116:56–64), incorporated herein by reference in its entirety. Anxiolytic efficacy was measured as the ability of the test compound to increase the amount of time that the mice spent in the open zones of the maze. To account for the possibility of false positive results due to increased locomotor activity, total distance traveled during the course of the experiment was also monitored.\nThe zero maze, constructed of black Perspex, consisted of a circle (outer diameter approximately 60 cm, width 5 cm) that was elevated 55 cm above the floor. The zero maze was divided into 4 equal quadrants, alternating between open and closed. […] Animals were tested under low levels of illumination in the presence of red light. Test animals (male CN57BI/n mice) were group housed with ad lib access to food and water. On the day of testing, animals were brought into the behavioral testing room and allowed to habituate for a period of not less than one-half hour. Test compounds were administered at the appropriate dose ip. 30 min prior to testing on the zero maze. Control animals were administered the test vehicle. Animals were placed on the zero maze with their head and forepaws contained within a closed quadrant. The animals' behavior was then recorded for 4 minutes and the distance traveled, the amount of time spent in, and number of entries into, each quadrant was noted. Behavior was monitored utilizing an automated video tracking system. Results for the test compounds are presented here as the percentage relative to that obtained with the control animals."}, "[2]": {"molecular_target": "T1, human Kv1.1/Kvβ1 potassium ion channel complex (Homo sapiens, UniProt Q09470)", "T1 construct": "expressed in transfected cells; host or cells: Xenopus oocytes injected with cRNA", "T1 sequence (Q09470 whole entry, one chain of several)": "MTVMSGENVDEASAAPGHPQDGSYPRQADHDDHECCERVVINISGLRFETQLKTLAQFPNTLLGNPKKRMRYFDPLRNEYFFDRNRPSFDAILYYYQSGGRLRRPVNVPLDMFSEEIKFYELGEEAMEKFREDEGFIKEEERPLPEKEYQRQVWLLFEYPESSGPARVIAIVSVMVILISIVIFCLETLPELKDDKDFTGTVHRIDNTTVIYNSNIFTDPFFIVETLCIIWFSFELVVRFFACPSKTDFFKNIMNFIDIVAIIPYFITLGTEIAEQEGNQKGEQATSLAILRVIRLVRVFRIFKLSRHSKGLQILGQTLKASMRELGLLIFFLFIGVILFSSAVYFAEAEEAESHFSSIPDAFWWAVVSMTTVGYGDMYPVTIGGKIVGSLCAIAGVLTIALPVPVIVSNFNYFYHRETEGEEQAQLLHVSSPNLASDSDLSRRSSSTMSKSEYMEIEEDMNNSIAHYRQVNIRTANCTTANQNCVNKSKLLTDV", "assay": "Xenopus oocytes current assay (inhibition of inactivation, voltage clamp)", "format": "cell-based", "details": "Xenopus oocytes expressing hKv1.1/hKvβ1, relative to control bath solution, read-out: Percent Increase in Steady State Current Of human Kv1.1/Kvβ1 @ a concentration of 50 μM", "procedure": "The compounds of formula I were examined for their ability to inhibit the inactivation of the human Kv1.1/Kvβ1 potassium ion channel complex in vitro using electrophysiological current recordings on inactivating Kv1.1/Kvβ1 channels expressed in Xenopus oocytes. Xenopus oocytes were harvested from frogs under general anesthesia using aseptic techniques. Oocytes were treated with 2 mg/ml collagenase for 1–1.5 hr, defolliculated, and injected with 40 nL cRNA (a mixture of hky1.1 and hKvβ1) produced using standard molecular biological techniques (Sambrook, et al., 1989, Molecular Cloning: A Laboratory Manual). The concentration of hKv1.1/hKvp1 cRNA varies, but was generally about 50 ng/μL hKv1.1 and […] hKβ1.\nCurrents were recorded using standard voltage clamp amplifiers at room temperature. Recordings were performed in the bath solution “ND-96” containing 96 mM NaCl, 2 mM KCl, 1 mm CaCl2, 1 mM MgCl2, 10 mM HEPES and […] Gentamycin (pH=7.6). The pipette (electrode) solution generally consisted of […]. Electrodes were made from WPI TW150F-4 borosilicate glass (or equivalent) and typically had resistances of 0.5–1.5 Mohms. The standard current-voltage (IV) pulse protocol consisted of voltage steps from −60 mV to +50 mV, in 10 mV increments for 200 ms, at a frequency of one IV set per 2 minutes. Data were digitized and analyzed by standard software packages.\nSolutions of the test compounds consisting of test compounds dissolved in bath solution were applied by bath perfusion using gravity or pump-driven flow. A minimum of 2 mL (10 times the bath volume) over 3 minutes were flowed for each compound concentration tested. Data were averaged across at least 3 cells tested for each concentration.\nTest compounds were examined for their ability to inhibit the inactivation of the steady state portion of the IV curve."}}}
{"smiles": "CN1C(=O)CN=C(c2ccccc2)c2cc(Cl)ccc21", "note": "[Diazepam, reference compound]", "values": [{"measurement": "% Total Distance Traveled (Relative to Control)", "setting": "[1]", "value": 75, "unit": "%"}, {"measurement": "% Total Distance Traveled (Relative to Control)", "setting": "[1]; listed as diazepam", "value": "small decrease"}]}
{"smiles": "CC1(C)C2CC[C@]1(C)C(=O)C(C(=O)Nc1cccc(C(F)(F)F)c1)C2=O", "note": "(stereo partly drawn) [Example 2, (1S)-N-[3-(trifluoromethyl)phenyl]-1,8,8-trimethyl-2,4-dioxobicyclo[3.2.1] octane-3-carboxamide]", "values": [{"measurement": "activation at 50 µM", "setting": "[2]", "value": 22, "unit": "%"}, {"measurement": "% Time Spent in Open Zones (Relative to Control)", "setting": "[1]; 60 mg/kg ip.", "value": 140, "unit": "%"}, {"measurement": "melting point", "value": "60 to 62", "unit": "°C"}]}
{"smiles": "CC1(C)C2CC[C@]1(C)C(=O)C(C(=O)Nc1ccc(F)c(Cl)c1)C2=O", "note": "(stereo partly drawn) [Example 10, (1S)-N-[3-chloro-4-fluorophenyl]-1,8,8-trimethyl-2,4-dioxobicyclo[3.2.1] octane-3-carboxamide]", "values": [{"measurement": "activation at 50 µM", "setting": "[2]", "value": 137, "unit": "%"}, {"measurement": "melting point", "value": "87 to 89", "unit": "°C"}]}
{"smiles": "CC1(C)C2CC[C@@]1(C)C(=O)C(C(=O)Nc1cc(C(F)(F)F)cc(C(F)(F)F)c1)C2=O", "note": "(stereo partly drawn) [Example 12, (1R)-N-[3,5-bis(trifluoromethyl)phenyl]-1,8,8-trimethyl-2,4-dioxobicyclo [3.2.1]octane-3-carboxamide]", "values": [{"measurement": "activation at 50 µM", "setting": "[2]", "value": 22, "unit": "%"}, {"measurement": "melting point", "value": "68 to 71", "unit": "°C"}]}
{"smiles": "CC1(C)C2CC[C@@]1(C)C(=O)C(C(=O)Nc1cc(Cl)cc(Cl)c1)C2=O", "note": "(stereo partly drawn) [Example 13, (1R)-N-(3,5-dichlorophenyl)-1,8,8-trimethyl-2,4-dioxobicyclo[3.2.1]octane-3-carboxamide]", "values": [{"measurement": "activation at 50 µM", "setting": "[2]", "value": 19, "unit": "%"}, {"measurement": "melting point", "value": "115 to 117", "unit": "°C"}]}
{"smiles": "CC1(C)C2CC[C@@]1(C)C(=O)C(C(=O)Nc1ccc([N+](=O)[O-])cc1)C2=O", "note": "(stereo partly drawn) [Example 15, (1R)-N-(4-nitrophenyl)-1,8,8-trimethyl-2,4-dioxobicyclo[3.2.1]octane-3-carboxamide]", "values": [{"measurement": "activation at 50 µM", "setting": "[2]", "value": 75, "unit": "%"}, {"measurement": "melting point", "value": "168 to 170", "unit": "°C"}]}
{"smiles": "CC1(C)C2CC[C@@]1(C)C(=O)C(C(=O)Nc1ccc(Cl)c(C(F)(F)F)c1)C2=O", "note": "(stereo partly drawn) [Example 16, (1R)-N-[4-chloro-3-(trifluoromethyl)phenyl]-1,8,8-trimethyl-2,4-dioxobicyclo [3.2.1]octane-3-carboxamide]", "values": [{"measurement": "activation at 50 µM", "setting": "[2]", "value": 45, "unit": "%"}, {"measurement": "melting point", "value": "117 to 119", "unit": "°C"}]}
{"smiles": "CC1(C)C2CC[C@@]1(C)C(=O)C(C(=O)Nc1ccc(C(F)(F)F)cc1)C2=O", "note": "(stereo partly drawn) [Example 18, (1R)-N-[4-(trifluoromethyl)phenyl]-1,8,8-trimethyl-2,4-dioxobicyclo[3.2.1] octane-3-carboxamide]", "values": [{"measurement": "activation at 50 µM", "setting": "[2]", "value": 96, "unit": "%"}, {"measurement": "melting point", "value": "78 to 81", "unit": "°C"}]}
{"smiles": "CC1(C)C2CC[C@@]1(C)C(=O)C(C(=O)Nc1ccc(Cl)cc1)C2=O", "note": "(stereo partly drawn) [Example 19, (1R)-N-[4-chlorophenyl]-1,8,8-trimethyl-2,4-dioxobicyclo[3.2.1]octane-3-carboxamide]", "values": [{"measurement": "activation at 50 µM", "setting": "[2]", "value": 14, "unit": "%"}, {"measurement": "melting point", "value": "88 to 90", "unit": "°C"}]}
{"smiles": "CC1(C)C2CC[C@@]1(C)C(=O)C(C(=O)Nc1ccc(F)c(Cl)c1)C2=O", "note": "(stereo partly drawn) [Example 20, (1R)-N-[3-chloro-4-fluorophenyl]-1,8,8-trimethyl-2,4-dioxobicyclo[3.2.1] octane-3-carboxamide]", "values": [{"measurement": "activation at 50 µM", "setting": "[2]", "value": 267, "unit": "%"}, {"measurement": "melting point", "value": "89 to 91", "unit": "°C"}]}
{"smiles": "CC1(C)C2CC[C@@]1(C)C(=O)C(C(=O)Nc1ccc(F)c(C(F)(F)F)c1)C2=O", "note": "(stereo partly drawn) [Example 21, (1R)-N-[3(trifluoromethyl)-4-fluorophenyl]-1,8,8-trimethyl-2,4-dioxobicyclo [3.2.1]octane-3-carboxamide]", "values": [{"measurement": "activation at 50 µM", "setting": "[2]", "value": 229, "unit": "%"}, {"measurement": "melting point", "value": "96 to 98", "unit": "°C"}]}
{"smiles": "O=C(Nc1cccc(C(F)(F)F)c1)C1C(=O)C2CCC(C2)C1=O", "note": "(stereo not shown) [Example 22, N-[3-(trifluoromethyl)phenyl]-2,4-dioxobicyclo[3.2.1]octane-3-carboxamide]", "values": [{"measurement": "activation at 50 µM", "setting": "[2]", "value": 41, "unit": "%"}, {"measurement": "melting point", "value": "68 to 69", "unit": "°C"}]}
{"smiles": "O=C(Nc1cc(C(F)(F)F)cc(C(F)(F)F)c1)C1C(=O)C2CCC(C2)C1=O", "note": "(stereo not shown) [Example 23, N-[3,5-bis(trifluoromethyl)phenyl]-2,4-dioxobicyclo[3.2.1]octane-3-carboxamide]", "values": [{"measurement": "activation at 50 µM", "setting": "[2]", "value": 137, "unit": "%"}, {"measurement": "melting point", "value": "88 to 90", "unit": "°C"}]}
{"smiles": "O=C(Nc1ccc(Cl)c(C(F)(F)F)c1)C1C(=O)C2CCC(C2)C1=O", "note": "(stereo not shown) [Example 25, N-[4-chloro-3-(trifluoromethyl)phenyl]-2,4-dioxobicyclo[3.2.1]octane-3-carboxamide]", "values": [{"measurement": "activation at 50 µM", "setting": "[2]", "value": 47, "unit": "%"}, {"measurement": "melting point", "value": "136 to 137", "unit": "°C"}]}
{"smiles": "O=C(Nc1ccc(F)c(C(F)(F)F)c1)C1C(=O)C2CCC(C2)C1=O", "note": "(stereo not shown) [Example 27, N-[4-fluoro-3-(trifluoromethyl)phenyl]-2,4-dioxobicyclo[3.2.1]octane-3-carboxamide]", "values": [{"measurement": "activation at 50 µM", "setting": "[2]", "value": 43, "unit": "%"}, {"measurement": "melting point", "value": "97 to 100", "unit": "°C"}]}
